Legend:
[1] = system: OCI-LY3 cells; experiment: Resazurin cell viability (proliferation) assay in OCI-LY3 DLBCL cells; type: cell-based; settings: Homo sapiens, OCI-LY3 cells (BTK independent), 72 h, 50% growth inhibition vs vehicle, read-out: OCI-LY3 Prol GI50
How it was run: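 Cells were seeded at 1×10^4 per well and dosed 3 h later: 8-point 1:4 dilutions from 10 μM (OCI-LY3), in triplicate, 72 h at 37 °C. Resazurin (13 μg/ml final) was added for the last 2 h and fluorescence read at 530/600 nm. GI50 is relative to DMSO vehicle, typically from ≥2 independent experiments.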

[2] = system: TMD8 cells; experiment: Resazurin cell viability (proliferation) assay in TMD8 DLBCL cells; type: cell-based; settings: Homo sapiens, TMD8 cells (BTK dependent), 72 h, 50% growth inhibition vs vehicle, read-out: TMD8 Prol GI50
How it was run: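 TMD8 cells were seeded at 1×10^4 per well and treated 3 h later with compound, in an 8-point 1:4 dilution series starting at 1 μM, or DMSO, for 72 h at 37° C. Resazurin was added at 13 μg/ml final for the last 2 h, and fluorescence was read at ex 530/em 600 nm. GI50 versus vehicle was derived by curve fitting from triplicates.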

GI50 [1] [nM] | SMILES | GI50 [2] [nM]
3430 | Cc1c(NC(=O)c2ccc(C(C)(C)O)cc2F)cc(F)cc1-c1ncnc2[nH]c(-c3ccc(COC4CCN(CCC5CCN(C(=O)c6ccc(F)c(N7CCC(=O)NC7=O)c6)CC5)CC4)cc3)cc12 [Compound 6, N-(3-(6-(4-(((1-(2(1-(3-(2,4-dioxotetrahydropyrimidin-1(2H)-yl)-4-fluorobenzoyl)piperidin-4-yl)ethyl)piperidin-4-yl)oxyl)methyl)phenyl)-7H-pyrrolo[2,3-d]pyrimidin-4-yl)-5-fluoro-2-methylphenyl)-2-fluoro-4-(2-hydroxypropan-2-yl)benzamide] | 0.53
> 10000 | COc1ccc(C(=O)N2CCN(CCCCNCc3ccc(-c4cc5c(-c6cc(F)cc(NC(=O)c7ccc(C(C)(C)O)cc7F)c6C)ncnc5[nH]4)cc3)CC2)cc1N1CCC(=O)NC1=O [Compound 40, N-(3-(6-(4-(((4-(4-(3-(2,4-dioxotetrahydropyrimidin-1(2H)-yl)-4-methoxybenzoyl)piperazin-1-yl)butyl)amino)methyl)phenyl)-7H-pyrrolo[2,3-d]pyrimidin-4-yl)-5-fluoro-2-methylphenyl)-2-fluoro-4-(2-hydroxypropan-2-yl)benzamide] | 3.43
4110 | COc1ccc(C(=O)N2CCN(C(=O)N3CCN(Cc4ccc(-c5cc6c(-c7cc(F)cc(NC(=O)c8ccc(C(C)(C)O)cc8F)c7C)ncnc6[nH]5)cc4)CC3)CC2)cc1N1CCC(=O)NC1=O [Compound 22, N-(3-(6-(4-((4-(4-(3-(2,4-Dioxotetrahydropyrimidin-1(2H)-yl)-4-methoxybenzoyl)piperazine-1-carbonyl)piperazin-1-yl)methyl)phenyl)-7H-pyrrolo[2,3-d]pyrimidin-4-yl)-5-fluoro-2-methylphenyl)-2-fluoro-4-(2-hydroxypropan-2-yl)benzamide] | 4.82
3050 | COc1ccc(C(=O)NCCN2CCC3(CC2)CCN(Cc2ccc(-c4cc5c(-c6cc(F)cc(NC(=O)c7ccc(C(C)(C)O)cc7F)c6C)ncnc5[nH]4)cc2)CC3)cc1N1CCC(=O)NC1=O [Compound 44, N-(3-(6-(4-((9-(2-(3-(2,4-dioxotetrahydropyrimidin-1(2H)-yl)-4-methoxybenzamido)ethyl)-3,9-diazaspiro[5.5]undecan-3-yl)methyl)phenyl)-7H-pyrrolo[2,3-d]pyrimidin-4-yl)-5-fluoro-2-methylphenyl)-2-fluoro-4-(2-hydroxypropan-2-yl)benzamide] | 3.74
6550 | Cc1ccc(C(=O)N2CCC3(CCN(CCc4ccc(-c5cc6c(-c7cc(F)cc(NC(=O)c8ccc(C(C)(C)O)cc8F)c7C)ncnc6[nH]5)cc4)CC3)CC2)cc1N1CCC(=O)NC1=O [Compound 5, N-(3-(6-(4-(2-(9-(3-(2,4-Dioxotetrahydropyrimidin-1(2H)-yl)-4-methylbenzoyl)-3,9-diazaspiro[5.5]undecan-3-yl)ethyl)phenyl)-7H-pyrrolo[2,3-d]pyrimidin-4-yl)-5-fluoro-2-methylphenyl)-2-fluoro-4-(2-hydroxypropan-2-yl)benzamide] | 0.47
8620 | Cc1cc(F)c(C(=O)NCCCCCNCc2ccc(-c3cc4c(-c5cc(F)cc(NC(=O)c6ccc(C(C)(C)O)cc6F)c5C)ncnc4[nH]3)cc2)cc1N1CCC(=O)NC1=O [Compound 29, 5-(2,4-Dioxotetrahydropyrimidin-1(2H)-yl)-2-fluoro-N—(S-((4-(4-(5-fluoro-3-(2-fluoro-4-(2-hydroxypropan-2-yl)benzamido)-2-methylphenyl)-7H-pyrrolo[2,3-d]pyrimidin-6-yl)benzyl)amino)pentyl)-4-methylbenzamide] | 2.25
> 10000 | Cc1ccc(C(=O)N(C)CCCCCNCc2ccc(-c3cc4c(-c5cc(F)cc(NC(=O)c6ccc(C(C)(C)O)cc6F)c5C)ncnc4[nH]3)cc2)cc1N1CCC(=O)NC1=O [Compound 30, 3-(2,4-Dioxotetrahydropyrimidin-1(2H)-yl)-N-(5-((4-(4-(5-fluoro-3-(2-fluoro-4-(2-hydroxypropan-2-yl)benzamido)-2-methylphenyl)-7H-pyrrolo[2,3-d]pyrimidin-6-yl)benzyl)amino)pentyl)-N,4-dimethylbenzamide] | 5.2

Reference: patent US12441733B2, “Substituted 2,4-dioxotetrahydropyrimidines as intermediates in the synthesis of bruton's tyrosine kinase inhibitors” (Novartis AG, priority 2018, dated 2025)
